Laboratory results reported in ChEMBL document CHEMBL1759983, “Design and SAR of macrocyclic Hsp90 inhibitors with increased metabolic stability and potent cell-proliferation activity” (Bioorg Med Chem Lett, 2011).
In brackets after ≈: the same amount, converted by molar mass.

Legend:
[1] = Aqueous solubility of the compound; format: physicochemical
[2] = molecular target: Heat shock protein HSP 90-alpha (Homo sapiens, UniProt P07900)
Description: Inhibition of Hsp90alpha after 3 hrs by fluorescence polarization assay

[3] = tested on: HCT-116; test: Antiproliferative activity against human HCT116 cells measured on day 4 by Cell titer-glo assay; format: functional, cell-based
[4] = in vitro; conditions: rat, liver microsomes

Which solubility [1] does the source give for Cc1c2c(n3c1CCCNC[C@H](C)Nc1cc-3ccc1C(N)=O)CC(C)(C)CC2=O here?
The solubility was greater than 100 µg/mL.

With Cc1c2c(n3c1CCNCCCNc1cc-3ccc1C(N)=O)CC(C)(C)CC2=O as the compound, how does the IC50 [2] read?
Its IC50 is 400 nM.

And the EC50 ([3]; Homo sapiens, HCT-116, 96 h)?
The EC50 was 8140 nM.

What does the source list for Cc1c2c(n3c1CCNCCNc1cc-3ccc1C(N)=O)CC(C)(C)CC2=O?
IC50 [2]: 12400 nM; solubility [1]: > 100 µg/mL; half-life [4]: 15 min

What does the source list for Cc1c2c(n3c1CCCNCC(C)(C)CNc1cc-3ccc1C(N)=O)CC(C)(C)CC2=O?
IC50 [2]: 290 nM; EC50 ([3]; hct-116): 210 nM; solubility [1]: 6 µg/mL (≈ 13.7 µM); half-life [4]: 3 min

For Cc1c2c(n3c1CCCNC(C)(C)CNc1cc-3ccc1C(N)=O)CC(C)(C)CC2=O, which IC50 [2] is on record?
The IC50 was 140 nM.

And the EC50 ([3]; hct-116)?
The EC50 was 80 nM.

What about the solubility [1] of the same compound?
Its solubility is 52 µg/mL (≈ 123 µM).

What about the half-life [4] of the same compound?
Its half-life is 15 min.

For Cc1c2c(n3c1CCCNCCNc1cc-3ccc1C(N)=O)CC(C)(C)CC2=O, which IC50 [2] is on record?
The IC50 was 920 nM.

What about the EC50 ([3]; Homo sapiens, HCT-116, 96 h) of the same compound?
Its EC50 is 820 nM.

What about the solubility [1] of the same compound?
Its solubility is 35 µg/mL (≈ 88.7 µM).

And the half-life [4]?
The half-life was greater than 30 min.

With Cc1c2c(n3c1CCNCC[C@H](C)Nc1cc-3ccc1C(N)=O)CC(C)(C)CC2=O as the compound, how does the solubility [1] read?
The solubility was 67 µg/mL (≈ 164 µM).

What does the source list for Cc1c2c(n3c1CCCNCC(C)(C)Nc1cc-3ccc1C(N)=O)CC(C)(C)CC2=O?
IC50 [2]: 830 nM; EC50 ([3]; Homo sapiens, HCT-116, 96 h): 620 nM; solubility [1]: 45 µg/mL (≈ 106 µM); half-life [4]: > 30 min

For Cc1c2c(n3c1CCNCC(C)CNc1cc-3ccc1C(N)=O)CC(C)(C)CC2=O (stereo not drawn), which IC50 [2] is on record?
Its IC50 is 360 nM.

What about the EC50 ([3]; Homo sapiens, HCT-116, 96 h) of the same compound?
The EC50 was 250 nM.

And the solubility [1]?
Its solubility is 39 µg/mL (≈ 95.5 µM).

And the half-life [4]?
The half-life was 5 min.

Which IC50 [2] does the source give for Cc1c2c(n3c1CCNCC(O)CNc1cc-3ccc1C(N)=O)CC(C)(C)CC2=O (stereo not drawn) here?
Its IC50 is 320 nM.

And the EC50 ([3]; Homo sapiens, HCT-116, 96 h)?
The EC50 was 600 nM.

What about the solubility [1] of the same compound?
Its solubility is 70 µg/mL (≈ 171 µM).

And the half-life [4]?
The half-life was 10 min.

Which results are given for Cc1c2c(n3c1CCNCCOCCNc1cc-3ccc1C(N)=O)CC(C)(C)CC2=O?
IC50 [2]: 570 nM; EC50 ([3]; Homo sapiens, HCT-116, 96 h): 830 nM; solubility [1]: 73 µg/mL (≈ 172 µM); half-life [4]: 28 min

For Cc1c2c(n3c1CNCCCCNc1cc-3ccc1C(N)=O)CC(C)(C)CC2=O, which IC50 [2] is on record?
The IC50 was greater than 5000 nM.

What about the EC50 ([3]; Homo sapiens, HCT-116, 96 h) of the same compound?
Its EC50 is greater than 5000 nM.

What about the solubility [1] of the same compound?
The solubility was 18 µg/mL (≈ 45.6 µM).

What about the half-life [4] of the same compound?
The half-life was 18 min.

Which IC50 [2] does the source give for Cc1c2c(n3c1CNCCC[C@H](C)Nc1cc-3ccc1C(N)=O)CC(C)(C)CC2=O here?
The IC50 was greater than 5000 nM.

What about the EC50 ([3]; Homo sapiens, HCT-116, 96 h) of the same compound?
The EC50 was greater than 5000 nM.

And the solubility [1]?
The solubility was 16 µg/mL (≈ 39.2 µM).

And the half-life [4]?
The half-life was 7 min.

For Cc1c2c(n3c1CCC(C)NCCNc1cc-3ccc1C(N)=O)CC(C)(C)CC2=O (stereo not drawn), which IC50 [2] is on record?
The IC50 was 1240 nM.

And the EC50 ([3]; Homo sapiens, HCT-116, 96 h)?
Its EC50 is 940 nM.

What about the solubility [1] of the same compound?
The solubility was 69 µg/mL (≈ 169 µM).

And the half-life [4]?
Its half-life is 26 min.

With Cc1c2c(n3c1CC[C@@H](C)N[C@H](C)CNc1cc-3ccc1C(N)=O)CC(C)(C)CC2=O as the compound, how does the IC50 [2] read?
The IC50 was 90 nM.

And the EC50 ([3]; Homo sapiens, HCT-116, 96 h)?
Its EC50 is 30 nM.

And the solubility [1]?
Its solubility is greater than 100 µg/mL.

What about the half-life [4] of the same compound?
The half-life was 15 min.

What does the source list for Cc1c2c(n3c1CC[C@H](C)N[C@H](C)CNc1cc-3ccc1C(N)=O)CC(C)(C)CC2=O?
IC50 [2]: 430 nM; EC50 ([3]; Homo sapiens, HCT-116, 96 h): 360 nM; solubility [1]: 58 µg/mL (≈ 137 µM); half-life [4]: 7 min

With Cc1c2c(n3c1CCCN(C)C[C@H](C)Nc1cc-3ccc1C(N)=O)CC(C)(C)CC2=O as the compound, how does the IC50 [2] read?
Its IC50 is 150 nM.

And the EC50 ([3]; hct-116)?
Its EC50 is 80 nM.

And the solubility [1]?
The solubility was 31 µg/mL (≈ 73.4 µM).

And the half-life [4]?
The half-life was 11 min.

With CC(=O)N1CCc2c(C)c3c(n2-c2ccc(C(N)=O)c(c2)N[C@@H](C)CC1)CC(C)(C)CC3=O as the compound, how does the IC50 [2] read?
Its IC50 is 110 nM.

And the EC50 ([3]; Homo sapiens, HCT-116, 96 h)?
Its EC50 is 150 nM.

And the solubility [1]?
The solubility was 19 µg/mL (≈ 42.2 µM).

What about the half-life [4] of the same compound?
Its half-life is 9 min.
